Patent US11098072B2, “Alkenyl and beta-substituted phosphonates as antimicrobial agents” (The George Washington University, priority 2017, dated 2021)
Where two headings read alike, the source gives them in different places.

Assays:
P. falciparum DXR = target: T1, P. falciparum DXR (Plasmodium falciparum, UniProt Q8IKG4); conditions: read-out: Pf DXR IC50; Table 2, footnote a: Gießmann et al. 2008; cited from earlier work
T1 sequence (Q8IKG4 73-488): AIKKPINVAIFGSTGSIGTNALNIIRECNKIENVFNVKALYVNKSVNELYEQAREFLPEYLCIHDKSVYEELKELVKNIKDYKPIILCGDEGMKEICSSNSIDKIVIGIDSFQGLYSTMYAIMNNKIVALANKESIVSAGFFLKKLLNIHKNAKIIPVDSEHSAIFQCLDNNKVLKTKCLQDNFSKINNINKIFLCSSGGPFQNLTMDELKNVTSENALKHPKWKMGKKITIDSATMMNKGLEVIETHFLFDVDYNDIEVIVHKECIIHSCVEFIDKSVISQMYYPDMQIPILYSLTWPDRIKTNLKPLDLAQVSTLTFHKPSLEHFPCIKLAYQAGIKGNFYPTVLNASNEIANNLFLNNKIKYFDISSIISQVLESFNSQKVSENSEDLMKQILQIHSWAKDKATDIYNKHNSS

Mtb = conditions: footnote a: Jackson et al. 2014, cited from earlier work
P. falciparum [1] = conditions: Table 6, footnote b: Edwards et al. 2017; read-out: P.f. IC50; cited from earlier work
P. falciparum [2] = assay: Growth inhibition against P. falciparum; format: cell-based; conditions: Plasmodium falciparum
DXR = conditions: versus substrate DOXP and cofactor NADPH; cited from earlier work
[3] = test system: P. falciparum had1 mutant strain; format: cell-based; conditions: in words

In the case of `CC(=O)N(O)C/C=C/P(=O)(O)O` [Compound 2], the IC50 (P. falciparum DXR) is given as 18 nM, the “Mtb MIC99 Gast/Fe” value (Mtb; minimal media (GAST-Fe)) is given as 150^a μg/mL and the “Mtb MIC99 7H9” value (Mtb; rich media (7H9)) is given as >200^a μg/mL. For the same compound, the IC50 (P. falciparum [1]) was 203 nM.

`O=CN(O)CCCP(=O)(O)O` [Fosmidomycin, reference compound] gave an IC50 (P. falciparum [2]; Table 3, diethyl phosphonate analogs, read-out: P.f. IC50) of 0.175 µg/mL, an IC50 (P. falciparum [2]; Table 4, growth inhibition, read-out: Pf IC50) of 854 nM and an IC50 (P. falciparum [2]; read-out: P. falciparum growth IC50) of 854 nM. For the same compound, the “binding mode to DXR” value (DXR) was “competitively with substrate DOXP and noncompetitively with cofactor NADPH” and the “resistance of had1 parasites compared with wild-type” value [3] was “resistant”.
